From patent publication US6242611A, “Phenylimidazolidines containing nitrooxy or carbonyloxy groups” (Hoechst Marion Roussel, priority 1995, dated 2001)

Key:
[1] = molecular target: T1, Androgen Receptor (Rattus norvegicus, UniProt P15207); experiment: Affinity for the androgen receptor (relative bond affinity, tritiated testosterone displacement, rat prostate cytosol); assay type: binding, Male Sprague Dawley EOPS rats
T1 construct: the prostates are removed, weighed and homogenized at 0° C; from tissue; host or cells: prostate cytosol of castrated male Sprague Dawley rats
T1 sequence (P15207 1-902): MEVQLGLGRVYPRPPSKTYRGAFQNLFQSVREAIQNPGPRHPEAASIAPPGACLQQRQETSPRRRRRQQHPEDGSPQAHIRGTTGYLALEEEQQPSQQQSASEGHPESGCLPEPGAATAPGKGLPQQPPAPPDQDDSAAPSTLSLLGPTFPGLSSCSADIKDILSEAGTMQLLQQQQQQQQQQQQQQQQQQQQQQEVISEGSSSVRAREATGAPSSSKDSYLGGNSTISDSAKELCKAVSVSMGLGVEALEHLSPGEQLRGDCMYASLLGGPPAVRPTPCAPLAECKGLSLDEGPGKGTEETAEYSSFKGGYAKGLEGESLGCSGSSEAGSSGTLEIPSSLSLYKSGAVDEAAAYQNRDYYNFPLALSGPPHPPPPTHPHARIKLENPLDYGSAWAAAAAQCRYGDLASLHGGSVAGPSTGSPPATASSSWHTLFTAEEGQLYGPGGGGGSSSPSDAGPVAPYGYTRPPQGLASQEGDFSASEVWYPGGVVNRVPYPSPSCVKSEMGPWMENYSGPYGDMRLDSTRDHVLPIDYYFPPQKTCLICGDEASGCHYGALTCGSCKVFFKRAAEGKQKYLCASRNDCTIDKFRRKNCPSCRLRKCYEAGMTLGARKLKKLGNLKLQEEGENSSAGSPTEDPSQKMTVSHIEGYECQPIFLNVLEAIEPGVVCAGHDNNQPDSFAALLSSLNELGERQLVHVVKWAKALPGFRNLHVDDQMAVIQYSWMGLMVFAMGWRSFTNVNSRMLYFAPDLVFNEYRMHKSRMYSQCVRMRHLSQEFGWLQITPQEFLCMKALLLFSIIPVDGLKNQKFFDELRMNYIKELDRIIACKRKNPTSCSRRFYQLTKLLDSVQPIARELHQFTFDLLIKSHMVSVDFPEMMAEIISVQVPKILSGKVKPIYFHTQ
Method: The homogenate is then ultracentrifuged at 0° C., for 30 minutes at 209,000 g.

[2] = test system: Costo-vertebral Gland of the Hamster; experiment: Reducing effect on the costo-vertebral gland of the hamster (local topical antiandrogen activity); assay type: in vivo, male hamsters (Charles River breed); details: 3 weeks (14 administrations), surface area of C.V.G., male hamsters, compared to animals treated with solvent only
Method: The local activity (topical) of an antiandrogen is determined by the reduction which it produces in the surface area of the costovertebral gland of the hamster (hereafter C.V.G.), an androgen-dependent organ situated on the sides of the animal.
The animals are male hamsters weighing approximately 140 g, 14 weeks old and originating from the Charles Riverbreed (USA), they are subjected to a long photoperiod (16 hours of light, 8 hours of darkness). The animals are treated every day, except for the weekend, for 3 weeks (14 administrations). The product to be tested is applied, by topical route, to the right-hand G.C.V., the left-hand one serving as the control, the surface of the gland having been shaved beforehand. The animals are sacrificed by bleeding the carotid artery 24 hours after the last treatment. The C.V.G.'s are removed, measured and weighed. The local activity of a product is determined by the % reduction in the surface area of the C.V.G. which it induces in comparison with the 1st of day the experiment and compared to the animals treated with solvent only.

[3] = test system: Prostate in an Intact Male Rat; experiment: Reducing effect in the weight of the prostate in an intact male rat (systemic antiandrogen activity); assay type: in vivo, male rats of the Sprague Dawley strain; details: day 0 to day 4 then day 7 to day 10, intact male rats, compared to animals treated with solvent only
Method: The experiment is carried out over two weeks, except for the weekend.
The product can be administered by oral, sub-cutaneous or percutaneous route.
The treatment is carried out from day 0 to day 4 then (after the weekend) from day 7 to day 10. The animals are sacrificed the day after the last treatment by bleeding the carotid artery, the prostates are removed and fixed in demineralized water containing 10% formol for 72 hours. They are then dissected and weighed.

Compound: CC(C)OC(=O)OCCCCN1C(=O)N(c2ccc(C#N)c(C(F)(F)F)c2)C(=O)C1(C)C [Example 1, 4-(3-(4-cyano-3-(trifluoromethyl)-phenyl)-5,5-dimethyl-2,4-dioxo-1-imidazolidinyl)butyl and 1-methylethyl carbonate]
- RBA: Incubation for 24 hours [1]: 19
- % CVG reduction with 3 μg/jour [2]: -32%
- % reduction in the prostate weight with 3 mg/kg P.O. [3]: -5%
